Tests used:
[1] = system: M. avium subsp. paratuberculosis ATCC43015; format: cell-based, Mycobacterium avium subsp. paratuberculosis
M. bovis BCG Japanese = format: cell-based, Mycobacterium bovis; settings: agar dilution, 3-week incubation at 37° C.; smaller number = higher activity
[2] = system: M. avium subsp. avium ATCC25291; experiment: Minimum growth inhibitory concentration (MIC), serial dilution on Middlebrook 7H10 agar with mycobactin J; format: cell-based, Mycobacterium avium subsp. avium; settings: 3-week incubation at 37° C., smaller number = higher activity

Row | Compound | Minumum growth inhibitory conc. of test compounds, M. avium subsp. paratuberculosis ATCC43015 [1] [µg/mL] | antibacterial activity against Mycobacterium avium subsp. paratuberculosis compared with the caprazamycin derivatives of Production Examples 1 and 2 [1] | Minumum growth inhibitory conc. of test compounds, M. bovis BCG Japanese (M. bovis BCG Japanese) [µg/mL] | Minumum growth inhibitory conc. of test compounds, M. avium subsp. avium ATCC25291 [2] [µg/mL]
1 | NNC(=O)c1ccncc1 [INH, isoniazid] | >50 | lower antibacterial activity | 0.20 | >50
2 | caprazamycin B [CPZ-B] | 3.13 | lower antibacterial activity | 6.25 | 12.5
3 | caprazol-3′″-dodecanoyl ester derivative [Compound VII-F] | 0.78 |  | 3.13 | 12.5

Reference: US8058247B2 (priority 2006, dated 2011)
